Measured values: ChEMBL document CHEMBL3217493, “Approaches to discover non-ATP site kinase inhibitors” (Medchemcomm, 2013)

Target: Mitogen-activated protein kinase 1 (Homo sapiens, UniProt P28482)
Assay: Binding affinity to ERK2 (unknown origin)

Sequence of Mitogen-activated protein kinase 1 (P28482 whole entry): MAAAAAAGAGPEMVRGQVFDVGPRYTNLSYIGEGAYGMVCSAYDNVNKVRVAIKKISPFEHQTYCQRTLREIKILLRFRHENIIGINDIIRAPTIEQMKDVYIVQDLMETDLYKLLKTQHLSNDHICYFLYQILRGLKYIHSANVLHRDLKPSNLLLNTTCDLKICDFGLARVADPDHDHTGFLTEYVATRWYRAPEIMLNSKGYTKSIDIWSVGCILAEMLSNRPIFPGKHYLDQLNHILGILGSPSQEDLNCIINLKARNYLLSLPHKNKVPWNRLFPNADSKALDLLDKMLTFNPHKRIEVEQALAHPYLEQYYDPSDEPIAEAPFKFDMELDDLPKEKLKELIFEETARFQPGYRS

Kd: 5 µM
Compound: COc1ccc(/C=C2\SC(=O)N(CCN)C2=O)cc1
